Columns and labels:
[1] = biological target: T1, human S1P4 (formerly Edg 6) (Homo sapiens, UniProt O95977); test: phospho ERK 1/2 ELISA in CHO cells stably transfected with human S1P4; format: cell-based; conditions: CHO EDG6 (S1P4); 10 nM S1P, no antibody
T1 sequence (O95977 1-384): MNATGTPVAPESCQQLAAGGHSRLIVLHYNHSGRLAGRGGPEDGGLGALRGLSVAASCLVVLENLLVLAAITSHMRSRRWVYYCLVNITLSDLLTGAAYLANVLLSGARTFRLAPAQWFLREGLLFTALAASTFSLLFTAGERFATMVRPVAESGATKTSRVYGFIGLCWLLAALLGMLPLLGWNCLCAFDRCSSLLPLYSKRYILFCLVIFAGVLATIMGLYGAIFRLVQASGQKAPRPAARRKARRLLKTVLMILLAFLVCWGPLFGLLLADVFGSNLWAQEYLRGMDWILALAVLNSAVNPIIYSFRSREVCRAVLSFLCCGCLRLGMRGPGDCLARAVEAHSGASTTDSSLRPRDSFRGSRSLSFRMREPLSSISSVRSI
Protocol: (§1) For example, CHO cells that are stably transfected with human S1P4 (formerly Edg 6) a GPCR (g protein coupled receptor) for sphingosine 1-phosphate (S1P) a lipid growth factor mediator or mock transfected CHO control cells are washed in DMEM and starved of serum for 4 hours at 37° C.
(§2) One million cells in 1 ml serum free DMEM were challenged with monoclonal antibodies that had been raised against a S1P4 cyclic molecular mimic loop 1B structure described herein for 10 minutes at room temperature. Monoclonal antibody supernatants containing DMEM with 10% fetal bovine serum antibiotics, L glutamine media supplements, were pretreated with cell culture tested Norite™ (Sigma Chemical Company) for 24 hours at 4 C to remove endogenous S1P from the media prior to the addition of supernatant to cells. Following antibody addition and incubation, 10 nM S1P was added for 15 minutes at 37 C. Controls of media alone, media and Norite™, media and 10 nM S1P, media-Norite™ and SIP, and media PMA were included. [drawing]

[2] = system: mock transfected CHO control cells; test: phospho ERK 1/2 ELISA in mock transfected CHO control cells; format: cell-based; conditions: 10 nM S1P, no antibody
Protocol: as §1, §2

[3] = NMR spectra of mixtures of loop peptide and O-phosphoethanolamine; format: binding; conditions: mixture with O-phosphoethanolamine
Source text: NMR is used to characterize the interactions between the extracellular loops and O-phosphoethanolamine, a mimic of the S1P4 endogenous ligand to determine if potential for ligand binding exists.
The most important NMR result for the characterization of the interaction between the constrained peptides and O-phosphoethanolamine are heteronuclear 2D-NOE that allow derivation of the distances between the cationic nitrogens of R121 and R287 and the phosphate phosphorous atom of O-phosphoethanolamine. Additional information is derived from chemical shift changes of the protons in residues of the loop peptides upon addition of the phosphoethanolamine as well as chemical shift changes of protons on the phosphoethanolamine. Such chemical shift changes are indicative of changes in the electronic environment of these protons and are used in high-throughput NMR assays of ligand binding. (Shuker, S. B., Hajduk, P. J., Meadows, R. P. & Fesik, S. W. Discovering High-Affinity Ligands for Proteins: SAR by NMR. Science 274, 1531-1534 (1996)).

Row | Molecule | phospho ERK 1/2 [1] | phospho ERK 1/2 [2] | ligand binding by NMR [3]
1 | CCCCCCCCCCCCC/C=C/[C@@H](O)[C@@H](N)COP(=O)(O)O [Clone S1P, sphingosine 1-phosphate] | 1.280 ng/mL | 0.000 ng/mL | 
2 | FLVWGPLFGLLLADVFGSNLWAQEYLRGMDWILAAVL [Loop 3, conformationally constrained peptide mimicking S1P4 extracellular loop 3] |  |  | reflect ligand binding
3 | TGAYLANVLLSGARTFRLAPAQWFLREGCLFT [Loop 1 B, conformationally constrained (disulfide) peptide mimicking S1P4 extracellular loop 1] |  |  | reflect ligand binding
